Measurements reported in the supplement of paper PMC13380429.

Legend:
Details in all cases: 72 h
[1] = tested on: Vero E6; assay: relative viability EC50 (midpoint between 100% and the lowest measured viability); higher = less toxic
[2] = tested on: HepG2; assay: as above
[3] = tested on: U2OS; assay: as above
[4] = tested on: Vero E6; assay: drug sensitivity score (DSS) for viability; higher = more toxic; extreme values may be limits of the assay
[5] = tested on: HepG2; assay: as above
[6] = tested on: Caco-2; assay: as above
[7] = tested on: U2OS; assay: as above
[8] = tested on: Vero E6; assay: cell viability relative to DMSO; higher = less toxic
[9] = tested on: HepG2; assay: as above
[10] = tested on: Caco-2; assay: as above
[11] = tested on: U2OS; assay: as above
[12] = tested on: Calu-3; assay: drug sensitivity score (DSS) for viability; higher = more toxic; extreme values may be limits of the assay
[13] = tested on: Caco-2; assay: relative viability EC50 (midpoint between 100% and the lowest measured viability); higher = less toxic
[14] = tested on: Calu-3; assay: cell viability relative to DMSO; higher = less toxic

O=[N+]([O-])c1ccc(O)c([N+](=O)[O-])c1 [2,4-dinitrophenol]
relative viability EC50 [1]: > 10 µM | relative viability EC50 [2]: > 10 µM | relative viability EC50 [3]: > 10 µM | drug sensitivity score [4]: 0 | drug sensitivity score [5]: 0 | drug sensitivity score [6]: 1.8 | drug sensitivity score [7]: 0 | cell viability ([8]; 1 nM): 94% | cell viability ([8]; 10 nM): 103% | cell viability ([8]; 100 nM): 100% | cell viability ([8]; 1000 nM): 92.9% | cell viability ([8]; 10000 nM): 99.1% | cell viability ([9]; 1 nM): 100% | cell viability ([9]; 10 nM): 89.5% | cell viability ([9]; 100 nM): 110% | cell viability ([9]; 1000 nM): 106% | cell viability ([9]; 10000 nM): 103% | cell viability ([10]; 1 nM): 89.3% | cell viability ([10]; 10 nM): 96.8% | cell viability ([10]; 100 nM): 82.7% | cell viability ([10]; 1000 nM): 98.8% | cell viability ([10]; 10000 nM): 73.4% | cell viability ([11]; 1 nM): 96.2% | cell viability ([11]; 10 nM): 102% | cell viability ([11]; 100 nM): 106% | cell viability ([11]; 1000 nM): 105% | cell viability ([11]; 10000 nM): 97%

O=C(O)COC(=O)Cc1ccccc1Nc1c(Cl)cccc1Cl [aceclofenac]
drug sensitivity score [4]: 0 | drug sensitivity score [5]: 0 | drug sensitivity score [7]: 0 | drug sensitivity score [12]: 0

CNC(=O)Oc1cccc2ccccc12 [carbaril]
drug sensitivity score [4]: 0 | drug sensitivity score [5]: 0 | drug sensitivity score [7]: 0 | drug sensitivity score [12]: 0

C[C@@H](N)c1ccc(C(=O)Nc2ccnc3[nH]ccc23)cc1
relative viability EC50 [1]: > 10 µM | relative viability EC50 [13]: > 10 µM | drug sensitivity score [4]: 0.2 | drug sensitivity score [5]: 2.8 | drug sensitivity score [6]: 0 | drug sensitivity score [7]: 1.2 | cell viability ([8]; 1 nM): 99.1% | cell viability ([8]; 10 nM): 98.5% | cell viability ([8]; 100 nM): 96.6% | cell viability ([8]; 1000 nM): 93% | cell viability ([8]; 10000 nM): 86.5% | cell viability ([9]; 1 nM): 93.7% | cell viability ([9]; 10 nM): 94.4% | cell viability ([9]; 100 nM): 105% | cell viability ([9]; 1000 nM): 89.8% | cell viability ([9]; 10000 nM): 68.4% | cell viability ([10]; 1 nM): 95.8% | cell viability ([10]; 10 nM): 101% | cell viability ([10]; 100 nM): 110% | cell viability ([10]; 1000 nM): 105% | cell viability ([10]; 10000 nM): 91.6% | cell viability ([11]; 1 nM): 99.3% | cell viability ([11]; 10 nM): 96.8% | cell viability ([11]; 100 nM): 99% | cell viability ([11]; 1000 nM): 98.2% | cell viability ([11]; 10000 nM): 75%

N=C(N)NC(=O)c1cnccn1 [pyrazinoylguanidine]
relative viability EC50 [1]: > 10 µM | relative viability EC50 [2]: > 10 µM | relative viability EC50 [13]: > 10 µM | drug sensitivity score [4]: 0 | drug sensitivity score [5]: 0 | drug sensitivity score [6]: 0 | cell viability ([8]; 1 nM): 99.8% | cell viability ([8]; 10 nM): 106% | cell viability ([8]; 100 nM): 104% | cell viability ([8]; 1000 nM): 106% | cell viability ([8]; 10000 nM): 99.7% | cell viability ([9]; 1 nM): 104% | cell viability ([9]; 10 nM): 97.1% | cell viability ([9]; 100 nM): 94.9% | cell viability ([9]; 1000 nM): 99.1% | cell viability ([9]; 10000 nM): 104% | cell viability ([10]; 1 nM): 107% | cell viability ([10]; 10 nM): 100% | cell viability ([10]; 100 nM): 101% | cell viability ([10]; 1000 nM): 99.7% | cell viability ([10]; 10000 nM): 101%

Nc1nc2c(ncn2COC(CO)CO)c(=O)[nH]1 [ganciclovir]
drug sensitivity score [4]: 0 | drug sensitivity score [5]: 0 | drug sensitivity score [7]: 0 | drug sensitivity score [12]: 0

NS(=O)(=O)OC[C@@H]1C[C@@H](n2ccc3c(N[C@H]4CCc5ccccc54)ncnc32)C[C@@H]1O [pevonedistat]
relative viability EC50 [1]: 3.45 µM | relative viability EC50 [2]: 0.401 µM | relative viability EC50 [3]: 1.3 µM | drug sensitivity score [4]: 3.9 | drug sensitivity score [5]: 10.3 | drug sensitivity score [6]: 3.1 | drug sensitivity score [7]: 8.8 | drug sensitivity score [12]: 1.6 | cell viability ([8]; 1 nM): 96.9% | cell viability ([8]; 10 nM): 107% | cell viability ([8]; 100 nM): 103% | cell viability ([8]; 1000 nM): 104% | cell viability ([8]; 10000 nM): 24.3% | cell viability ([9]; 1 nM): 96.3% | cell viability ([9]; 10 nM): 111% | cell viability ([9]; 100 nM): 77.6% | cell viability ([9]; 1000 nM): 58.2% | cell viability ([9]; 10000 nM): 32.7% | cell viability ([10]; 1 nM): 95.3% | cell viability ([10]; 10 nM): 106% | cell viability ([10]; 100 nM): 87.7% | cell viability ([10]; 1000 nM): 92.4% | cell viability ([10]; 10000 nM): 60.1% | cell viability ([11]; 1 nM): 98.6% | cell viability ([11]; 10 nM): 98.6% | cell viability ([11]; 100 nM): 101% | cell viability ([11]; 1000 nM): 71% | cell viability ([11]; 10000 nM): 14.9% | cell viability ([14]; 1 nM): 94.9% | cell viability ([14]; 10 nM): 97.2% | cell viability ([14]; 100 nM): 104% | cell viability ([14]; 1000 nM): 97.4% | cell viability ([14]; 10000 nM): 71.8%

C=C[C@H]1CN2CC[C@H]1C[C@@H]2[C@@H](O)c1ccnc2ccc(OC)cc12 [quinidine]
drug sensitivity score [4]: 0 | drug sensitivity score [5]: 0 | drug sensitivity score [7]: 0 | drug sensitivity score [12]: 0

CCC(=O)O[C@@H]1CC(=O)O[C@H](C)C/C=C/C=C/[C@H](O)[C@H](C)C[C@H](CC=O)[C@H](O[C@@H]2O[C@H](C)[C@@H](O[C@H]3C[C@@](C)(O)[C@@H](OC(=O)CC)[C@H](C)O3)[C@H](N(C)C)[C@H]2O)[C@H]1OC [midecamycin]
relative viability EC50 [1]: > 10 µM | relative viability EC50 [13]: > 10 µM | relative viability EC50 [3]: > 10 µM | drug sensitivity score [4]: 0 | drug sensitivity score [5]: 1.3 | drug sensitivity score [6]: 0 | drug sensitivity score [7]: 0 | cell viability ([8]; 1 nM): 105% | cell viability ([8]; 10 nM): 97.7% | cell viability ([8]; 100 nM): 101% | cell viability ([8]; 1000 nM): 102% | cell viability ([8]; 10000 nM): 95.2% | cell viability ([9]; 1 nM): 103% | cell viability ([9]; 10 nM): 93.1% | cell viability ([9]; 100 nM): 91.5% | cell viability ([9]; 1000 nM): 98% | cell viability ([9]; 10000 nM): 74% | cell viability ([10]; 1 nM): 94.4% | cell viability ([10]; 10 nM): 99.1% | cell viability ([10]; 100 nM): 103% | cell viability ([10]; 1000 nM): 91.8% | cell viability ([10]; 10000 nM): 91.4% | cell viability ([11]; 1 nM): 97.1% | cell viability ([11]; 10 nM): 97% | cell viability ([11]; 100 nM): 99.2% | cell viability ([11]; 1000 nM): 96.2% | cell viability ([11]; 10000 nM): 97.6%

Oc1nc(-c2ccc(C(F)(F)F)cc2)nc2c1CSCC2 [XAV-939]
relative viability EC50 [2]: > 10 µM | relative viability EC50 [13]: > 10 µM | relative viability EC50 [3]: > 10 µM | drug sensitivity score [4]: 2.4 | drug sensitivity score [5]: 0 | drug sensitivity score [6]: 0 | drug sensitivity score [7]: 0 | drug sensitivity score [12]: 2.7 | cell viability ([8]; 1 nM): 94.6% | cell viability ([8]; 10 nM): 98.5% | cell viability ([8]; 100 nM): 97% | cell viability ([8]; 1000 nM): 90.4% | cell viability ([8]; 10000 nM): 69.6% | cell viability ([9]; 1 nM): 101% | cell viability ([9]; 10 nM): 108% | cell viability ([9]; 100 nM): 98.2% | cell viability ([9]; 1000 nM): 99.7% | cell viability ([9]; 10000 nM): 94.4% | cell viability ([10]; 1 nM): 103% | cell viability ([10]; 10 nM): 97% | cell viability ([10]; 100 nM): 99.8% | cell viability ([10]; 1000 nM): 92.3% | cell viability ([10]; 10000 nM): 101% | cell viability ([11]; 1 nM): 105% | cell viability ([11]; 10 nM): 101% | cell viability ([11]; 100 nM): 101% | cell viability ([11]; 1000 nM): 99.2% | cell viability ([11]; 10000 nM): 96.4% | cell viability ([14]; 1 nM): 110% | cell viability ([14]; 10 nM): 94% | cell viability ([14]; 100 nM): 97.1% | cell viability ([14]; 1000 nM): 84.1% | cell viability ([14]; 10000 nM): 71.7%
